In patent publication US20030032674A1, “Use of unsaturated fatty acids to treat severe inflammatory diseases” (priority 2001, published 2003):

Experiments:
[1] = test system: COX-2 expression; assay: COX-2 immunoblot (Western blot) in RAW 264.7 cells; type: cell-based, murine
Experimental: (§1) Cell culture—RAW 264.7 cells (a murine macrophage-like cell line, ATCC TIB-71), 293T cells (a human embryonic kidney cell line, provided by Sam Lee, Beth Israel Hospital. Boston, Mass.), and HT-29 cells (a human colon adenocarcinoma cell line, ATCC HTB-38) were cultured in Dulbecco's modified Eagle's medium (DMEM) containing 10% (v/v) heat-inactivated fetal bovine serum (FBS, Intergen) and 100 units/ml Penicillin and […] Streptomycin (GIBCO-BRL) at 37° C. in a 5% CO2/air environment. Cells (2×10^6) were plated in 60-mm dishes and cultured for an additional 18 hours to allow the number of cells to approximately double. Cells were maintained in serum-poor (0.25% FBS) medium for another 18 hours prior to the treatment with indicated reagents.
Preparation of fatty acids-albumin complexes—All fatty acids were solubilized in ethanol, and then combined with fatty acid-free and low-endotoxin BSA at a molar ratio of 10:1 (fatty acid: albumin) in serum-poor medium (0.25% FBS). Fatty acids-albumin complex solution was freshly prepared prior to each experiment.
Sodium dodecyl sulfate-polyacrylamide gel electrophoresis (SDS-PAGE) and immunoblotting—These procedures were performed as previously described in D. Hwang et al., “Expression of mitogen-inducible cyclooxygenase induced by lipopolysaccharide: mediation through both mitogen-activated protein kinase and NF-kappaB signaling pathways in macrophages,” Biochem. Pharmacol., vol. 54, pp. 87-96 (1997). Briefly, solubilized proteins were subjected to 8% SDS-PAGE for COX-2, iNOS, IL- 1α and GAPDH immunoblot analyses. Following electrophoresis, the gel was transferred to a PVDF membrane and the membrane was blocked to prevent non-specific binding of antibodies in TBS-T [20 mM Tris HCl, 137 mM NaCl, 0.05% (v/v) Tween 20, pH 7.6] containing 5% non-fat dried milk (Carnation). Immunoblotting was performed using respective polyclonal antibodies followed by incubation with anti-rabbit IgG coupled to horseradish peroxidase. The membrane was exposed on an X-ray film (Kodak) using ECL western blot detection reagents (Amersham).
(§2) After 11 h, cell lysates were analyzed by COX-2, iNOS, IL-1α, or GAPDH immunoblot using a Western blot analysis.
The cell lysates were analyzed by COX-2 or GAPDH immunoblot.
(§3) RAW 264.7 cells were pretested with various concentrations (5, 10, 20, and 50 μM) of docosahexaenoic acid (C22:6n-3) for 3 hours, and then stimulated with LPS (100 ng/ml) for 8 hours and analyzed by COX-2, iNOS, IL-1 a or GAPDH immunoblot.
Cells stably transfected with NFκB(5×) or COX-2 promoter reporter genes were pretreated with various concentrations of each fatty acid for 3 hrs. Cells were then treated with LPS (200 ng/ml). After 8 hrs, cell lysates were prepared and luciferase activities were determined. Data are expressed as a percentage of LPS treatment alone. The results for NFκB and COX-2 expression are given in FIGS. 8A and 8B, respectively. The values are mean±SEM (n=3) of RLA, relative luciferase activity. In FIG. 8C, the cells were pretreated with DHA (20 μM) or C12:0 (75 μM) for 3 hrs and further stimulated with LPS (200 ng/ml for DHA; 1 ng/ml for C12:0). After 8 hr, cell lysates were analyzed by COX-2 and actin immunoblotting.

[2] = test system: IL-1α expression; assay: IL-1α immunoblot in RAW 264.7 cells; type: cell-based, murine; conditions: lauric acid 1, 10, 50, 100 μM with BSA, 11 h
Experimental: as §1
Preparation of fatty acids-albumin complexes—All fatty acids were solubilized in ethanol, and then combined with fatty acid-free and low-endotoxin BSA at a molar ratio of 10:1 (fatty acid: albumin) in serum-poor medium (0.25% FBS). […]
as §2, §3

## CCCCCCCCCCCC(=O)O [lauric acid]
[1]; DHA 20 μM or C12:0 75 μM 3 hrs, LPS 200 ng/ml for DHA, 1 ng/ml for C12:0, 8 hr
  effect on LPS-induced COX-2 expression (immunoblot): potentiated
[1]; RAW 264.7, lauric acid 1, 10, 50, 100 μM with BSA, 11 h
  COX-2 expression induced by fatty acid (immunoblot): induced
[2]
  IL-1α expression induced by fatty acid (immunoblot): induced
